10 compounds from patent US20250206732A1, “COMPOUNDS AND METHODS FOR THE TARGETED DEGRADATION OF KRAS” (Arvinas Operations, Inc., priority 2022, published 2025) can be followed below.

Structures are written as SMILES.

This experiment concerns the target T1, AsPC-1 HiBiT-KRASG12D (Homo sapiens, UniProt P01116, G12D).
T1 construct: insert the HiBiT tag onto the N-terminus of one or more of the endogenous KRAS alleles; endogenous in cells; host or cells: AsPC-1 (ATCC CRL-1682), CRISPR-Cas9 knock-in clone, one tagged allele
Put plainly: HiBiT degradation assay (G12D), AsPC-1 HiBiT-KRASG12D cells. It is filed as cell-based. The note with it: 24 hours treatment; for Dmax: ASPC1, AsPC-1 HiBiT-KRASG12D cells, maximum degradation observed; for DC50: AsPC-1 HiBiT-KRASG12D cells, HiBiT luminescence. The essentials: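 Endogenous KRASG12D levels were measured via an N-terminal HiBiT tag knocked into AsPC-1 cells. Cells received compound titrations for 24 hours, and HiBiT luminescence was detected after a 45-minute lytic reagent incubation at room temperature.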
In general terms: With HiBiT, luminescence reflects the tagged protein that the partner subunit can reach.

For orientation: Dmax means the largest share of the target that was removed. Higher therefore signals deep degradation. Usually DC50 stands for the concentration at which degradation of the target reaches its halfway point.

T1 sequence (P01116 1-188 isoform P01116-2 G12D): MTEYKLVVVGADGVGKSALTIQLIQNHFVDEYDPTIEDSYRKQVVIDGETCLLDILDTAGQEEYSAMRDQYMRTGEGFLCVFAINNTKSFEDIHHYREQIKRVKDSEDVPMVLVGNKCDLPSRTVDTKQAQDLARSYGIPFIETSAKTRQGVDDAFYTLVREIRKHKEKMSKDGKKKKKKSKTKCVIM

Consider `CCc1cccc2cc(O)cc(-c3ncc4c(N5CC6CCC(C5)N6)nc(OC[C@@]56CCCN5[C@H](COC(=O)N5CC(COc7cc([C@@H](C(=O)N8C[C@H](O)C[C@H]8C(=O)N[C@@H](C)c8ccc(-c9scnc9C)cc8)C(C)C)on7)C5)CC6)nc4c3F)c12` [Compound 115, [(3S,7aS)-7a-{[(4-{3,8-diazabicyclo[3.2.1]octan-3-yl}-7-(8-ethyl-3-hydroxynaphthalen-1-yl)-8-fluoropyrido[4,3-d]pyrimidin-2-yl)oxy]methyl}-hexahydro-1H-pyrrolizin-3-yl]methyl 3-[({5-[(2S)-1-[(2S,4R)-4-hydroxy-2-{[(1S)-1-[4-(4-methyl-1,3-thiazol-5-yl)phenyl]ethyl]carbamoyl}pyrrolidin-1-yl]-3-methyl-1-oxobutan-2-yl]-1,2-oxazol-3-yl}oxy)methyl]azetidine-1-carboxylate], for which the Dmax was 20 to 60% and the DC50 fell in the range of 600 to 1000 nM.
Compound `CCc1cccc2cc(O)cc(-c3ncc4c(N5CC6CCC(C5)N6)nc(OC[C@]56CCCN5[C@H](COC(=O)N5CCC(Oc7cc([C@H](C(=O)N8C[C@H](O)C[C@H]8C(=O)N[C@@H](C)c8ccc(-c9scnc9C)cc8)C(C)C)on7)CC5)CC6)nc4c3F)c12` [Compound 116, [(3S,7aR)-7a-{[(4-{3,8-diazabicyclo[3.2.1]octan-3-yl}-7-(8-ethyl-3-hydroxynaphthalen-1-yl)-8-fluoropyrido[4,3-d]pyrimidin-2-yl)oxy]methyl}-hexahydro-1H-pyrrolizin-3-yl]methyl 4-({5-[(2R)-1-[(2S,4R)-4-hydroxy-2-{[(1S)-1-[4-(4-methyl-1,3-thiazol-5-yl)phenyl]ethyl]carbamoyl}pyrrolidin-1-yl]-3-methyl-1-oxobutan-2-yl]-1,2-oxazol-3-yl}oxy)piperidine-1-carboxylate] yielded a Dmax of 80 to 100% and a 50% degradation concentration (DC50) of under 600 nM.
On to `CCc1cccc2cc(O)cc(-c3ncc4c(N5CC6CCC(C5)N6)nc(OC[C@@]56CCCN5[C@H](COC(=O)N5CCC(Oc7cc([C@H](C(=O)N8C[C@H](O)C[C@H]8C(=O)N[C@@H](C)c8ccc(-c9scnc9C)cc8)C(C)C)on7)CC5)CC6)nc4c3F)c12` [Compound 117, [(3S,7aS)-7a-{[(4-{3,8-diazabicyclo[3.2.1]octan-3-yl}-7-(8-ethyl-3-hydroxynaphthalen-1-yl)-8-fluoropyrido[4,3-d]pyrimidin-2-yl)oxy]methyl}-hexahydro-1H-pyrrolizin-3-yl]methyl 4-({5-[(2R)-1-[(2S,4R)-4-hydroxy-2-{[(1S)-1-[4-(4-methyl-1,3-thiazol-5-yl)phenyl]ethyl]carbamoyl}pyrrolidin-1-yl]-3-methyl-1-oxobutan-2-yl]-1,2-oxazol-3-yl}oxy)piperidine-1-carboxylate], for which the Dmax is 80 to 100% and the DC50 is under 600 nM.
The compound `CCc1cccc2cc(O)cc(-c3ncc4c(N5CC6CCC(C5)N6)nc(OC[C@@]56CCCN5[C@H](COC(=O)N5CCC(Oc7cc([C@@H](C(=O)N8C[C@H](O)C[C@H]8C(=O)N[C@@H](C)c8ccc(-c9scnc9C)cc8)C(C)C)on7)CC5)CC6)nc4c3F)c12` [Compound 118, [(3S,7aS)-7a-{[(4-{3,8-diazabicyclo[3.2.1]octan-3-yl}-7-(8-ethyl-3-hydroxynaphthalen-1-yl)-8-fluoropyrido[4,3-d]pyrimidin-2-yl)oxy]methyl}-hexahydro-1H-pyrrolizin-3-yl]methyl 4-({5-[(2S)-1-[(2S,4R)-4-hydroxy-2-{[(1S)-1-[4-(4-methyl-1,3-thiazol-5-yl)phenyl]ethyl]carbamoyl}pyrrolidin-1-yl]-3-methyl-1-oxobutan-2-yl]-1,2-oxazol-3-yl}oxy)piperidine-1-carboxylate] returned a Dmax of 20 to 60% and a DC50 of 600 to 1000 nM.
`CCc1cccc2cc(O)cc(-c3ncc4c(N5CC6CCC(C5)N6)nc(OC[C@]56CCCN5[C@H](COC(=O)N5CCC(Oc7cc([C@@H](C(=O)N8C[C@H](O)C[C@H]8C(=O)N[C@@H](C)c8ccc(-c9scnc9C)cc8)C(C)C)on7)CC5)CC6)nc4c3F)c12` [Compound 119, [(3S,7aR)-7a-{[(4-{3,8-diazabicyclo[3.2.1]octan-3-yl}-7-(8-ethyl-3-hydroxynaphthalen-1-yl)-8-fluoropyrido[4,3-d]pyrimidin-2-yl)oxy]methyl}-hexahydro-1H-pyrrolizin-3-yl]methyl 4-({5-[(2S)-1-[(2S,4R)-4-hydroxy-2-{[(1S)-1-[4-(4-methyl-1,3-thiazol-5-yl)phenyl]ethyl]carbamoyl}pyrrolidin-1-yl]-3-methyl-1-oxobutan-2-yl]-1,2-oxazol-3-yl}oxy)piperidine-1-carboxylate] came in with a Dmax of 20 to 60% and a half-maximal degradation concentration (DC50) of under 600 nM.
For the compound `CCc1cccc2cc(O)cc(-c3ncc4c(N5CC6CCC(C5)N6)nc(OC[C@]56CCCN5[C@H](COC(=O)N5CCN(c7cc([C@H](C(=O)N8C[C@H](O)C[C@H]8C(=O)N[C@@H](C)c8ccc(-c9scnc9C)cc8)C(C)C)on7)C[C@H]5C)CC6)nc4c3F)c12` [Compound 120, [(3S,7aR)-7a-{[(4-{3,8-diazabicyclo[3.2.1]octan-3-yl}-7-(8-ethyl-3-hydroxynaphthalen-1-yl)-8-fluoropyrido[4,3-d]pyrimidin-2-yl)oxy]methyl}-hexahydro-1H-pyrrolizin-3-yl]methyl (2R)-4-{5-[(2R)-1-[(2S,4R)-4-hydroxy-2-{[(1S)-1-[4-(4-methyl-1,3-thiazol-5-yl)phenyl]ethyl]carbamoyl}pyrrolidin-1-yl]-3-methyl-1-oxobutan-2-yl]-1,2-oxazol-3-yl}-2-methylpiperazine-1-carboxylate], the Dmax was 80 to 100% and the DC50 was under 600 nM.
Consider `CCc1cccc2cc(O)cc(-c3ncc4c(N5CC6CCC(C5)N6)nc(OC[C@]56CCCN5[C@H](COC(=O)N5CC(COc7cc([C@H](C(=O)N8C[C@H](O)C[C@H]8C(=O)N[C@@H](C)c8ccc(-c9scnc9C)cc8)C(C)C)on7)C5)CC6)nc4c3F)c12` [Compound 121, [(3S,7aR)-7a-{[(4-{3,8-diazabicyclo[3.2.1]octan-3-yl}-7-(8-ethyl-3-hydroxynaphthalen-1-yl)-8-fluoropyrido[4,3-d]pyrimidin-2-yl)oxy]methyl}-hexahydro-1H-pyrrolizin-3-yl]methyl 3-[({5-[(2R)-1-[(2S,4R)-4-hydroxy-2-{[(1S)-1-[4-(4-methyl-1,3-thiazol-5-yl)phenyl]ethyl]carbamoyl}pyrrolidin-1-yl]-3-methyl-1-oxobutan-2-yl]-1,2-oxazol-3-yl}oxy)methyl]azetidine-1-carboxylate], for which the Dmax fell in the range of 80 to 100% and the DC50 is under 600 nM.
The matching figures for `CCc1cccc2cc(O)cc(-c3ncc4c(N5CC6CCC(C5)N6)nc(OC[C@]56CCCN5[C@H](COC(=O)N5CC(COc7cc([C@@H](C(=O)N8C[C@H](O)C[C@H]8C(=O)N[C@@H](C)c8ccc(-c9scnc9C)cc8)C(C)C)on7)C5)CC6)nc4c3F)c12` [Compound 122, [(3S,7aR)-7a-{[(4-{3,8-diazabicyclo[3.2.1]octan-3-yl}-7-(8-ethyl-3-hydroxynaphthalen-1-yl)-8-fluoropyrido[4,3-d]pyrimidin-2-yl)oxy]methyl}-hexahydro-1H-pyrrolizin-3-yl]methyl 3-[({5-[(2S)-1-[(2S,4R)-4-hydroxy-2-{[(1S)-1-[4-(4-methyl-1,3-thiazol-5-yl)phenyl]ethyl]carbamoyl}pyrrolidin-1-yl]-3-methyl-1-oxobutan-2-yl]-1,2-oxazol-3-yl}oxy)methyl]azetidine-1-carboxylate]: 20 to 60% and 600 to 1000 nM.
Turning to `CCc1cccc2cc(O)cc(-c3ncc4c(N5CC6CCC(C5)N6)nc(OC[C@]56CCCN5[C@H](COC(=O)N5CCN(c7cc([C@H](C(=O)N8C[C@H](O)C[C@H]8C(=O)N[C@@H](C)c8ccc(-c9scnc9C)cc8)C(C)C)on7)[C@@H](C)C5)CC6)nc4c3F)c12` [Compound 123, [(3S,7aR)-7a-{[(4-{3,8-diazabicyclo[3.2.1]octan-3-yl}-7-(8-ethyl-3-hydroxynaphthalen-1-yl)-8-fluoropyrido[4,3-d]pyrimidin-2-yl)oxy]methyl}-hexahydro-1H-pyrrolizin-3-yl]methyl (3S)-4-{5-[(2R)-1-[(2S,4R)-4-hydroxy-2-{[(1S)-1-[4-(4-methyl-1,3-thiazol-5-yl)phenyl]ethyl]carbamoyl}pyrrolidin-1-yl]-3-methyl-1-oxobutan-2-yl]-1,2-oxazol-3-yl}-3-methylpiperazine-1-carboxylate], the Dmax lay within 80 to 100% and the DC50 is under 600 nM.
On to `CCc1cccc2cc(O)cc(-c3ncc4c(N5CC6CCC(C5)N6)nc(OC[C@]56CCCN5[C@H](COC(=O)N5CCN(c7cc([C@@H](C(=O)N8C[C@H](O)C[C@H]8C(=O)N[C@@H](C)c8ccc(-c9scnc9C)cc8)C(C)C)on7)[C@@H](C)C5)CC6)nc4c3F)c12` [Compound 124, [(3S,7aR)-7a-{[(4-{3,8-diazabicyclo[3.2.1]octan-3-yl}-7-(8-ethyl-3-hydroxynaphthalen-1-yl)-8-fluoropyrido[4,3-d]pyrimidin-2-yl)oxy]methyl}-hexahydro-1H-pyrrolizin-3-yl]methyl (3S)-4-{5-[(2S)-1-[(2S,4R)-4-hydroxy-2-{[(1S)-1-[4-(4-methyl-1,3-thiazol-5-yl)phenyl]ethyl]carbamoyl}pyrrolidin-1-yl]-3-methyl-1-oxobutan-2-yl]-1,2-oxazol-3-yl}-3-methylpiperazine-1-carboxylate], for which the Dmax was under 20% and the DC50 is under 600 nM.
